In assay [1] the test system is LPS-induced TNF-α release in primary cultured microglial cells. The experiment in a line: LPS-induced TNF-α release from primary cultured microglial cells (ELISA). Format: cell-based, mouse. The protocol: Murine primary culture microglial cells were isolated from mouse cerebral cortices (C57BL/6 mice) and cultured as previously described (Tan et al. 2000b). To investigate whether α7 nAChR subunits are expressed in microglial cells, we first isolated total RNA from N9 microglial cell line and primary cultured microglial cells for RT-PCR analysis.
To determine whether ACh or nicotine could inhibit LPS-induced TNF-α production in these microglial cells, the inventors pre-incubated microglial cells with ACh or nicotine for 30 minutes and challenged these cells with LPS for 4 hours. […] Primary cultured microglial cells pretreated with ACh (FIG. 3B) or nicotine […] at a range of dose as indicated for 30 minutes and challenged with LPS (100 ng/mL) for 4 hours. Microglial TNF-α release was measured by ELISA.
On the technique in general: In an ELISA, binding on a coated surface is turned into a signal by an enzyme label.

The next assay deals with α7 nAChR subunit (Mus musculus, UniProt P49582).
Sequence of α7 nAChR subunit (P49582 23-502): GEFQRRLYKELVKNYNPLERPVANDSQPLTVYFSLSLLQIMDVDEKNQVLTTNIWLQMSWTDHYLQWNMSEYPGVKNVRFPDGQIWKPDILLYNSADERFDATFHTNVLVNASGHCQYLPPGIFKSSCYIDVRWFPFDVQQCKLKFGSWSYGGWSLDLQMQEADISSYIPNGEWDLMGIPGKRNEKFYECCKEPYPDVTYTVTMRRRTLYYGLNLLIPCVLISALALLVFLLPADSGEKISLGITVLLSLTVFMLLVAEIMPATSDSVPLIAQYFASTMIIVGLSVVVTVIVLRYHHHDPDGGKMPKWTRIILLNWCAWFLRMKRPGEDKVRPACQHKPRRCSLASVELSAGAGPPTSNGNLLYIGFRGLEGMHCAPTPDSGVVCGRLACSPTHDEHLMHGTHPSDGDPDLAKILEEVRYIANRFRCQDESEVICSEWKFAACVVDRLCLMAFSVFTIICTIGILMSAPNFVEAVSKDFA

Where two headings read alike, the source gives them in different places.

With `CNC1(C)C2CCC(C2)C1(C)C` (stereo not drawn) [mecamylamine], in assay [1], the “effect of nACh antagonist on ACh or nicotine-mediated inhibition of microglial TNF-α production” value was “significantly recovers”. The “TNF-α release, antagonist plus LPS versus LPS alone” value in assay [1] (antagonist without agonist, […], LPS 100 ng/mL 4 hours, p>0.05) is recorded as “no significances”.

For the compound `CN1CCCC1c1cccnc1` (stereo not drawn) [nicotine], in assay [1], the “dose dependence of inhibition of microglial LPS-induced TNF-α production” value is recorded as “dose-dependently inhibits”. For the same compound, in assay [1] (pre-stimulated 30 minutes at 5 μM, then LPS 100 ng/mL for 4 hours, p<0.01 vs LPS (FIG. 3A)), the “LPS-induced TNF-α release” value is recorded as “marked reduction”. The “fluorescent intensity of FITC-labeled α-bungarotoxin binding” value on α7 nAChR subunit is “marked reduction”.

Consider α-bungarotoxin, for which the “TNF-α release, antagonist plus LPS versus LPS alone” value in assay [1] is “no significances”.

Source of the values: patent US20060142180A1, “Cholinergic modulation of microglial activation via alpha-7 nicotinic receptors” (priority 2003, published 2006).
